Measurements reported in the NIST ThermoML archive (doi:10.1021/acs.jced.8b00236).

Test: mn = molality of the nth substance listed, in mol/kg
Settings: 75 kPa, Liquid; for viscosity: Capillary tube (Ostwald / Ubbelohde) method; for speed of sound: Frequency=3 MHz, Single path-length method; for mass density: Vibrating tube method

NCC(=O)O [2-aminoacetic acid] + O
Settings	mass density [kg/m3]	speed of sound [m/s]	viscosity [mPa·s]
288.15 K, m1 = 0.1393	1003.55	1474.2	1.166
288.15 K, m1 = 0.2791	1007.86	1482	1.185
288.15 K, m1 = 0.4196	1012.03	1489.7	1.205
288.15 K, m1 = 0.56	1016.03	1497.4	1.226
288.15 K, m1 = 0.7019	1019.92	1505	1.248
288.15 K, m1 = 0.8453	1023.68	1512.6	1.27
288.15 K, m1 = 0.9876	1027.24	1520.1	1.295
288.15 K, m1 = 1.132	1030.68	1527.5	1.318
293.15 K, m1 = 0.1393	1002.61	1490.2	1.025
293.15 K, m1 = 0.2791	1006.87	1497.7	1.044
293.15 K, m1 = 0.4196	1010.97	1505.2	1.064
293.15 K, m1 = 0.56	1014.91	1512.5	1.084
293.15 K, m1 = 0.7019	1018.74	1519.8	1.104
293.15 K, m1 = 0.8453	1022.45	1527	1.125
293.15 K, m1 = 0.9876	1025.96	1534	1.146
293.15 K, m1 = 1.132	1029.37	1541	1.166
298.15 K, m1 = 0.1393	1001.4	1504.1	0.912
298.15 K, m1 = 0.2791	1005.6	1511.4	0.929
298.15 K, m1 = 0.4196	1009.68	1518.7	0.946
298.15 K, m1 = 0.56	1013.59	1525.8	0.964
298.15 K, m1 = 0.7019	1017.38	1532.8	0.982
298.15 K, m1 = 0.8453	1021.05	1539.8	0.999
298.15 K, m1 = 0.9876	1024.54	1546.6	1.011
298.15 K, m1 = 1.132	1027.89	1553.3	1.026
303.15 K, m1 = 0.1393	999.949	1516.3	0.82
303.15 K, m1 = 0.2791	1004.11	1523.4	0.839
303.15 K, m1 = 0.4196	1008.15	1530.5	0.853
303.15 K, m1 = 0.56	1012.03	1537.5	0.869
303.15 K, m1 = 0.7019	1015.8	1544.3	0.885
303.15 K, m1 = 0.8453	1019.44	1551.2	0.901
303.15 K, m1 = 0.9876	1022.91	1557.8	0.913
303.15 K, m1 = 1.132	1026.27	1564.5	0.929
308.15 K, m1 = 0.1393	998.286	1526.7	0.734
308.15 K, m1 = 0.2791	1002.41	1533.6	0.752
308.15 K, m1 = 0.4196	1006.42	1540.5	0.772
308.15 K, m1 = 0.56	1010.28	1547.2	0.785
308.15 K, m1 = 0.7019	1014.04	1553.9	0.804
308.15 K, m1 = 0.8453	1017.7	1560.5	0.815
308.15 K, m1 = 0.9876	1021.16	1567	0.825
308.15 K, m1 = 1.132	1024.55	1573.4	0.839

NCCC(=O)O [3-aminopropanoic acid] + O
Settings	mass density [kg/m3]	speed of sound [m/s]	viscosity [mPa·s]
288.15 K, m1 = 0.1393	1003.45	1475.7	1.179
288.15 K, m1 = 0.2789	1007.7	1484.8	1.214
288.15 K, m1 = 0.4194	1011.88	1493.8	1.252
288.15 K, m1 = 0.5603	1015.98	1502.7	1.291
288.15 K, m1 = 0.7021	1020	1511.6	1.332
288.15 K, m1 = 0.8451	1023.96	1520.4	1.372
288.15 K, m1 = 0.9881	1027.81	1529	1.414
288.15 K, m1 = 1.132	1031.61	1537.5	1.46
293.15 K, m1 = 0.1393	1002.51	1491.8	1.033
293.15 K, m1 = 0.2789	1006.72	1500.8	1.065
293.15 K, m1 = 0.4194	1010.86	1509.7	1.099
293.15 K, m1 = 0.5603	1014.91	1518.5	1.134
293.15 K, m1 = 0.7021	1018.9	1527.2	1.174
293.15 K, m1 = 0.8451	1022.82	1535.9	1.216
293.15 K, m1 = 0.9881	1026.64	1544.4	1.259
293.15 K, m1 = 1.132	1030.4	1552.7	1.307
298.15 K, m1 = 0.1393	1001.3	1505.5	0.9201
298.15 K, m1 = 0.2789	1005.48	1514.3	0.9466
298.15 K, m1 = 0.4194	1009.59	1522.9	0.9744
298.15 K, m1 = 0.5603	1013.63	1531.4	0.9995
298.15 K, m1 = 0.7021	1017.6	1539.9	1.034
298.15 K, m1 = 0.8451	1021.51	1548.2	1.062
298.15 K, m1 = 0.9881	1025.34	1556.4	1.1
298.15 K, m1 = 1.132	1029.1	1564.5	1.146
303.15 K, m1 = 0.1393	999.877	1517.7	0.824
303.15 K, m1 = 0.2789	1004.02	1526.1	0.8427
303.15 K, m1 = 0.4194	1008.09	1534.5	0.8667
303.15 K, m1 = 0.5603	1012.08	1542.8	0.8942
303.15 K, m1 = 0.7021	1016	1550.9	0.9256
303.15 K, m1 = 0.8451	1019.86	1559	0.959
303.15 K, m1 = 0.9881	1023.63	1566.9	1.001
303.15 K, m1 = 1.132	1027.33	1574.7	1.042
308.15 K, m1 = 0.1393	998.23	1527.9	0.733
308.15 K, m1 = 0.2789	1002.34	1536	0.7526
308.15 K, m1 = 0.4194	1006.39	1544	0.7692
308.15 K, m1 = 0.5603	1010.35	1551.9	0.7923
308.15 K, m1 = 0.7021	1014.25	1559.7	0.8219
308.15 K, m1 = 0.8451	1018.1	1567.4	0.8509
308.15 K, m1 = 0.9881	1021.85	1574.9	0.8756
308.15 K, m1 = 1.132	1025.53	1582.3	0.9126

NCCCC(=O)O [4-aminobutanoic acid] + O
Settings	mass density [kg/m3]	speed of sound [m/s]	viscosity [mPa·s]
288.15 K, m1 = 0.1389	1003.34	1478.5	1.204
288.15 K, m1 = 0.2788	1007.5	1490.3	1.252
288.15 K, m1 = 0.4194	1011.57	1501.8	1.313
288.15 K, m1 = 0.56	1015.51	1513	1.376
288.15 K, m1 = 0.702	1019.39	1523.9	1.452
288.15 K, m1 = 0.8449	1023.19	1534.5	1.515
288.15 K, m1 = 0.9892	1026.91	1544.8	1.591
288.15 K, m1 = 1.132	1030.5	1554.5	1.672
293.15 K, m1 = 0.1389	1002.43	1494.4	1.054
293.15 K, m1 = 0.2788	1006.57	1506	1.098
293.15 K, m1 = 0.4194	1010.61	1517.4	1.148
293.15 K, m1 = 0.56	1014.53	1528.5	1.206
293.15 K, m1 = 0.702	1018.37	1539.6	1.265
293.15 K, m1 = 0.8449	1022.12	1550.5	1.325
293.15 K, m1 = 0.9892	1025.79	1561.2	1.393
293.15 K, m1 = 1.132	1029.32	1571.5	1.464
298.15 K, m1 = 0.1389	1001.25	1508.1	0.936
298.15 K, m1 = 0.2788	1005.35	1519.3	0.975
298.15 K, m1 = 0.4194	1009.36	1530.3	1.022
298.15 K, m1 = 0.56	1013.22	1541.2	1.068
298.15 K, m1 = 0.702	1017.01	1551.9	1.125
298.15 K, m1 = 0.8449	1020.7	1562.2	1.178
298.15 K, m1 = 0.9892	1024.31	1572.5	1.243
298.15 K, m1 = 1.132	1027.75	1582.3	1.307
303.15 K, m1 = 0.1389	999.81	1520.1	0.835
303.15 K, m1 = 0.2788	1003.88	1530.9	0.874
303.15 K, m1 = 0.4194	1007.84	1541.6	0.91
303.15 K, m1 = 0.56	1011.67	1552.1	0.955
303.15 K, m1 = 0.702	1015.43	1562.4	0.994
303.15 K, m1 = 0.8449	1019.1	1572.4	1.037
303.15 K, m1 = 0.9892	1022.68	1582.3	1.095
303.15 K, m1 = 1.132	1026.12	1591.8	1.156
308.15 K, m1 = 0.1389	998.155	1530.4	0.753
308.15 K, m1 = 0.2788	1002.19	1540.9	0.788
308.15 K, m1 = 0.4194	1006.12	1551.3	0.822
308.15 K, m1 = 0.56	1009.94	1561.4	0.853
308.15 K, m1 = 0.702	1013.68	1571.3	0.894
308.15 K, m1 = 0.8449	1017.35	1581	0.94
308.15 K, m1 = 0.9892	1020.93	1590.6	0.991
308.15 K, m1 = 1.132	1024.37	1599.8	1.041

NCCCCC(=O)O [5-aminovaleric acid] + O
Settings	mass density [kg/m3]	speed of sound [m/s]	viscosity [mPa·s]
288.15 K, m1 = 0.1389	1003.29	1481	1.215
288.15 K, m1 = 0.2789	1007.34	1495.3	1.293
288.15 K, m1 = 0.4193	1011.22	1509.3	1.38
288.15 K, m1 = 0.5604	1014.96	1523	1.473
288.15 K, m1 = 0.7025	1018.54	1536.5	1.575
288.15 K, m1 = 0.8448	1021.98	1549.8	1.685
293.15 K, m1 = 0.1389	1002.34	1496.8	1.073
293.15 K, m1 = 0.2789	1006.33	1510.7	1.135
293.15 K, m1 = 0.4193	1010.16	1524.2	1.208
293.15 K, m1 = 0.5604	1013.85	1537.5	1.289
293.15 K, m1 = 0.7025	1017.4	1550.4	1.376
293.15 K, m1 = 0.8448	1020.81	1562.9	1.477
298.15 K, m1 = 0.1389	1001.15	1510.3	0.946
298.15 K, m1 = 0.2789	1005.16	1523.7	1.003
298.15 K, m1 = 0.4193	1009.06	1536.7	1.063
298.15 K, m1 = 0.5604	1012.86	1549.3	1.143
298.15 K, m1 = 0.7025	1016.56	1561.6	1.215
298.15 K, m1 = 0.8448	1020.15	1573.5	1.301
303.15 K, m1 = 0.1389	999.722	1522.1	0.853
303.15 K, m1 = 0.2789	1003.72	1534.9	0.893
303.15 K, m1 = 0.4193	1007.61	1547.4	0.95
303.15 K, m1 = 0.5604	1011.41	1559.5	1.013
303.15 K, m1 = 0.7025	1015.13	1571.3	1.077
303.15 K, m1 = 0.8448	1018.76	1582.7	1.158
308.15 K, m1 = 0.1389	998.079	1532.3	0.762
308.15 K, m1 = 0.2789	1002.05	1544.6	0.8
308.15 K, m1 = 0.4193	1005.91	1556.5	0.848
308.15 K, m1 = 0.5604	1009.68	1568.2	0.9
308.15 K, m1 = 0.7025	1013.37	1579.4	0.957
308.15 K, m1 = 0.8448	1016.96	1590.2	1.019
